Literature values, collected in paper PMC8513935.

Columns and labels:
[1] = derived by the authors as gas->solvent minus gas->water (a hypothetical dry solvent; the ESI), not a two-phase measurement
[2] = log P octanol/water from commercial databases, averaged (the ESI); conditions: Octanol (wet), 25 C
[3] = experimental, compiled by the authors from the literature (the ESI cites the sources)

SMILES: CC(C)=O
- log K of transfer, water to solvent ([1]; 1,2-Dichloroethane, 25 C): 0.3 log10 K
- log K of transfer, water to solvent ([1]; Acetone, 25 C): 0.21 log10 K
- log K of transfer, water to solvent ([1]; Acetonitrile, 25 C): 0.31 log10 K
- log K of transfer, water to solvent ([1]; Benzene, 25 C): -0.05 log10 K
- log K of transfer, water to solvent ([1]; Butan-1-ol, 25 C): -0.26 log10 K
- log K of transfer, water to solvent ([1]; Butanone, 25 C): 0.09 log10 K
- log K of transfer, water to solvent ([1]; CCl4, 25 C): -0.45 log10 K
- log K of transfer, water to solvent ([1]; Chlorobenzene, 25 C): -0.17 log10 K
- log K of transfer, water to solvent ([1]; Chloroform, 25 C): 0.46 log10 K
- log K of transfer, water to solvent ([1]; Cyclohexane, 25 C): -0.948 log10 K
- log K of transfer, water to solvent ([1]; Cyclohexanone, 25 C): -0.041 log10 K
- log K of transfer, water to solvent ([1]; Di-n-butyl ether, 25 C): -0.58 log10 K
- log K of transfer, water to solvent ([1]; Dichloromethane, 25 C): 0.56 log10 K
- log K of transfer, water to solvent ([1]; Diethyl Ether, 25 C): -0.26 log10 K
- log K of transfer, water to solvent ([1]; Ethanol, 25 C): -0.06 log10 K
- log K of transfer, water to solvent ([1]; Hexadecane, 25 C): -1.13 log10 K
- log K of transfer, water to solvent ([1]; Hexane, 25 C): -0.867 log10 K
- log K of transfer, water to solvent ([1]; Methanol, 25 C): 0.06 log10 K
- log K of transfer, water to solvent ([1]; Octan-1-ol(dry), 25 C): -0.52 log10 K
- log K of transfer, water to solvent ([1]; Pentan-1-ol, 25 C): -0.34 log10 K
- log K of transfer, water to solvent ([1]; Propan-2-ol, 25 C): -0.37 log10 K
- log K of transfer, water to solvent ([1]; Tetrahydrofuran, 25 C): 0.02 log10 K
- log K of transfer, water to solvent ([1]; Toluene, 25 C): -0.2 log10 K
- log K of transfer, water to solvent [2]: -0.24 log10 K
- log K of transfer, gas to solvent ([3]; 1,2-Dichloroethane, 25 C): 3.13 log10 K
- log K of transfer, gas to solvent ([3]; Acetonitrile, 25 C): 3.14 log10 K
- log K of transfer, gas to solvent ([3]; Benzene, 25 C): 2.78 log10 K
- log K of transfer, gas to solvent ([3]; Butan-1-ol, 25 C): 2.57 log10 K
- log K of transfer, gas to solvent ([3]; Butanone, 25 C): 2.92 log10 K
- log K of transfer, gas to solvent ([3]; CCl4, 25 C): 2.38 log10 K
- log K of transfer, gas to solvent ([3]; Chlorobenzene, 25 C): 2.66 log10 K
- log K of transfer, gas to solvent ([3]; Chloroform, 25 C): 3.29 log10 K
- log K of transfer, gas to solvent ([3]; Cyclohexane, 25 C): 1.88 log10 K
- log K of transfer, gas to solvent ([3]; Cyclohexanone, 25 C): 2.79 log10 K
- log K of transfer, gas to solvent ([3]; Di-n-butyl ether, 25 C): 2.25 log10 K
- log K of transfer, gas to solvent ([3]; Dichloromethane, 25 C): 3.39 log10 K
- log K of transfer, gas to solvent ([3]; Diethyl Ether, 25 C): 2.57 log10 K
- log K of transfer, gas to solvent ([3]; Ethanol, 25 C): 2.77 log10 K
- log K of transfer, gas to solvent ([3]; Hexadecane, 25 C): 1.7 log10 K
- log K of transfer, gas to solvent ([3]; Hexane, 25 C): 1.96 log10 K
- log K of transfer, gas to solvent ([3]; Methanol, 25 C): 2.89 log10 K
- log K of transfer, gas to solvent ([3]; Octan-1-ol, 25 C): 2.31 log10 K
- log K of transfer, gas to solvent ([3]; Pentan-1-ol, 25 C): 2.49 log10 K
- log K of transfer, gas to solvent ([3]; Propan-2-ol, 25 C): 2.46 log10 K
- log K of transfer, gas to solvent ([3]; Propanone, 25 C): 3.04 log10 K
- log K of transfer, gas to solvent ([3]; Tetrahydrofuran, 25 C): 2.85 log10 K
- log K of transfer, gas to solvent ([3]; Toluene, 25 C): 2.63 log10 K
- log K of transfer, gas to solvent ([3]; Water, 25 C): 2.83 log10 K

SMILES: C
- log K of transfer, water to solvent ([1]; Acetone, 25 C): 1.24 log10 K
- log K of transfer, water to solvent ([1]; Butan-1-ol, 25 C): 1.15 log10 K
- log K of transfer, water to solvent ([1]; CCl4, 25 C): 1.32 log10 K
- log K of transfer, water to solvent ([1]; Chlorobenzene, 25 C): 1.13 log10 K
- log K of transfer, water to solvent ([1]; Decan-1-ol, 25 C): 1.05 log10 K
- log K of transfer, water to solvent ([1]; Diethyl Ether, 25 C): 1.48 log10 K
- log K of transfer, water to solvent ([1]; Ethanol, 25 C): 1.17 log10 K
- log K of transfer, water to solvent ([1]; Heptan-1-ol, 25 C): 1.11 log10 K
- log K of transfer, water to solvent ([1]; Hexadecane, 25 C): 1.14 log10 K
- log K of transfer, water to solvent ([1]; Hexan-1-ol, 25 C): 1.12 log10 K
- log K of transfer, water to solvent ([1]; Hexane, 25 C): 1.44 log10 K
- log K of transfer, water to solvent ([1]; Methanol, 25 C): 1.19 log10 K
- log K of transfer, water to solvent ([1]; Octan-1-ol(dry), 25 C): 1.08 log10 K
- log K of transfer, water to solvent ([1]; Pentan-1-ol, 25 C): 1.13 log10 K
- log K of transfer, water to solvent ([1]; Perfluoroalkane, 25 C): 1.42 log10 K
- log K of transfer, water to solvent ([1]; Propan-1-ol, 25 C): 1.17 log10 K
- log K of transfer, water to solvent ([1]; Propan-2-ol, 25 C): 1.13 log10 K
- log K of transfer, water to solvent ([1]; Tetrahydrofuran, 25 C): 1.28 log10 K
- log K of transfer, water to solvent [2]: 1.09 log10 K

SMILES: CCCCCCCCCCO
- log K of transfer, water to solvent ([1]; Decan-1-ol, 25 C): 4.36 log10 K
- log K of transfer, water to solvent ([1]; Hexadecane, 25 C): 2.94 log10 K
- log K of transfer, water to solvent ([1]; Hexane, 25 C): 2.97 log10 K
- log K of transfer, water to solvent ([1]; Propan-1-ol, 25 C): 4.46 log10 K
- log K of transfer, water to solvent ([1]; Propan-2-ol, 25 C): 4.49 log10 K
- log K of transfer, water to solvent [2]: 4.12 log10 K
- log K of transfer, gas to solvent ([3]; Decan-1-ol, 25 C): 7.03 log10 K
- log K of transfer, gas to solvent ([3]; Hexadecane, 25 C): 5.61 log10 K
- log K of transfer, gas to solvent ([3]; Hexane, 25 C): 5.64 log10 K
- log K of transfer, gas to solvent ([3]; Propan-1-ol, 25 C): 7.13 log10 K
- log K of transfer, gas to solvent ([3]; Propan-2-ol, 25 C): 7.16 log10 K
- log K of transfer, gas to solvent ([3]; Water, 25 C): 2.67 log10 K
